Measured values as given in PMC8839821, “Potential Mechanisms Involved in the Protective Effect of Dicaffeoylquinic Acids from Artemisia annua L. Leaves against Diabetes and Its Complications” (Molecules, 2022).

What was measured:
[1] = test system: human skin fibroblast (HSF) cells; experiment: In vitro cell viability / cytotoxicity (SRB assay); type: cell-based; conditions: 72 h incubation, highest tested concentration 100 µg/mL
Protocol: (§1) Human Skin Fibroblasts (HSF) cell line was obtained from Nawah Scientific Inc. (Mokatam, Cairo, Egypt). Cells were kept in DMEM media with […] of streptomycin, 100 units/mL of penicillin and 10% of heat-inactivated fetal bovine serum in humidified, 5% (v/v) CO2 atmosphere at 37 °C.
Effect of the alcoholic extract and the isolated compounds on cell viability was evaluated to assess their safety utilizing SRB assay. An aliquot of 100 µL cell suspension (5 × 10^3 cells) was incubated with 100 μL media containing the test samples at concentrations (0.01, 0.1, 1, 10, 100 µg/mL) for 72 h. Media was removed and 150 μL of 10% TCA was added for fixing the cells that was further incubated at 4 °C for 1h. Cells were then washed with distilled water and 70 μL 0.4% SRB solution was added, and plates were placed in dark for 10 min. Plates were then washed with 1% acetic acid and left to dry overnight. 150 μL of 10 mM TRIS was then added and the absorbance was measured at 540 nm using a BMG LABTECH®-FLUOstar Omega microplate reader (Ortenberg, Germany). Experiments were done in triplicates and the IC50 was calculated.

[2] = test system: human skin fibroblast (HSF) cells; experiment: Scratch wound healing assay; type: cell-based; conditions: for time to complete wound healing: control healed in 72 h; for effect on scratch wound healing (in words): tested at 10, 100, 1000 µg/mL
Protocol: as §1
The wound healing assay was conducted to evaluate the effect of different concentrations of the polar fraction and isolated compounds from Artemisia Annua on the migration ability of HSF cell line using the scratch wound healing assay as previously described. In a coated 12-well plates, cells were seeded at density of 2 × 10^5/well in 5% FBS-DMEM and cultured overnight at 37 °C and 5% CO2. On the following day, horizontal scratches were made into the confluent monolayer and the plates were washed with PBS and treated with fresh media containing the combined polar extract and the isolated compounds in concentrations of 10, 100, 1000 µg/mL. Control wells were done using only plain medium. The plates were incubated at 37 °C and 5% CO2 and images were captured using an inverted microscope at 24, 48 and 72 h time intervals. The acquired images were analyzed by MII ImageView software version 3.7. Experiments were performed in triplicates. Wound width was calculated as the average distance between the edges of the scratches. As cell migration enhanced, the wound width diminishes.

[3] = DPPH radical scavenging assay; conditions: mean ± SEM of two replicates
Protocol: 2,2-diphenyl-1-picrylhydrazil (DPPH) Radical Scavenging Assay was exploited to assess the free radical scavenging potential of ART-CQ and the pure compounds according to Motaal et al., 2011 [52]. Different concentrations of ART-CQ (8, 16, 48, 64 µg/mL) and the isolated compounds (2, 4, 12, 16 µg/mL) were used. Ascorbic acid was used as the standard positive control and water was used in place of samples as a blank. The IC50 value for the test samples and standard was evaluated.

[4] = biological target: T1, Dipeptidyl Peptidase IV (DPPIV) enzyme (Homo sapiens, UniProt P27487); experiment: Dipeptidyl peptidase IV (DPPIV) inhibition assay (fluorometric inhibitor screening kit); type: biochemical; conditions: mean ± SEM of two replicates; read-out: DPPIV inhibitory activity IC50 (converted)
T1 construct: purchased Abnova
T1 sequence (P27487 whole entry, species assumed): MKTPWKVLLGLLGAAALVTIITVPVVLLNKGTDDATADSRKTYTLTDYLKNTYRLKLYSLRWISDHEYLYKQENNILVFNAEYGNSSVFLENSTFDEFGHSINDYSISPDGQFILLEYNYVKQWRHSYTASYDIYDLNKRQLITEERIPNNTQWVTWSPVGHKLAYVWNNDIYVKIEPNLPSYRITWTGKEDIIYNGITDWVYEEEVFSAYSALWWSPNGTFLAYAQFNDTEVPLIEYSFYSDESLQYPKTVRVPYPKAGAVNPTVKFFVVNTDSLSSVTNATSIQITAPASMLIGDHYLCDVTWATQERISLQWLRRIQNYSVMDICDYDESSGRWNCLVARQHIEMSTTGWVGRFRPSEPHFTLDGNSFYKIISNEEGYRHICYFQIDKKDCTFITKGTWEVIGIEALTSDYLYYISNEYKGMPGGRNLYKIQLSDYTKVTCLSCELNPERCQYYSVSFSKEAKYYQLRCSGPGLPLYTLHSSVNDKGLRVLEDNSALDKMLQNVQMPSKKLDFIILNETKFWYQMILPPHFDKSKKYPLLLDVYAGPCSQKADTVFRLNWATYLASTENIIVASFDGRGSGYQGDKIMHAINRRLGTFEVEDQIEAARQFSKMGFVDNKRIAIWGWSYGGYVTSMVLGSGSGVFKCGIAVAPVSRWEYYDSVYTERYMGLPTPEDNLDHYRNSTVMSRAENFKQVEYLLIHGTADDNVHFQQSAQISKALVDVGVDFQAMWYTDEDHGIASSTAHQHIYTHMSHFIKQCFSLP
Protocol: The dipeptidyl peptidase IV (DPPIV) inhibition effectiveness of the polar fraction of Artemisia annua (ART-CQ) and the isolated compounds was determined fluorometrically by using the DPPIV Inhibitor Screening Kit (Abnova, Taipei, Taiwan) following the manufacturer’s protocol. […] Then the enzyme substrate solution was added, and the […] was measured at Ex/Em = 360/460 nm. The plate was reincubated for 30 min at 37 °C and the […] was recorded again. Vidagliptin was used as the reference standard. The difference between the two readings was estimated and the IC50 was determined.

[5] = Ferric Reducing Antioxidant Power (FRAP) assay; conditions: ART-CQ 50 µg/mL, isolated compounds 25 µg/mL
Protocol: The DetectX® Ferric Reducing Antioxidant Power (FRAP™) Detection Kit (Arbor assays, Ann Arbor, MI, USA) was used to estimate the antioxidant and ferric reducing activity of the polar fraction of A. annua and the isolated compounds in accordance with the method of Benzie and Strain (1996). ART-CQ was utilized in a concentration of (50 µg/mL) while the isolated compounds were used in a concentration of (25 µg/mL). Ferric chloride standard and ascorbic acid control were used in the assay and the FRAP values were estimated and presented as µM FeCl2.

[6] = biological target: α-glucosidase; experiment: α-Glucosidase inhibition assay (inhibitor screening kit); type: biochemical; conditions: mean ± SEM of two replicates
Protocol: The in vitro α-glucosidase inhibitory potential of ART-CQ and its isolated compounds was evaluated using the α-Glucosidase Inhibitor Screening Kit (Biovision, Milpitas, CA, USA). […] After incubation, 20 µL of the α-Glucosidase Substrate in buffer was added and the absorbance was measured kinetically at 410 nm for 60 min. The polar fraction was tested in concentrations (10, 50, 100, 200 µg/mL) while the concentrations of the isolated compounds were (5, 20, 50, 100 µg/mL).
The change in absorbance is directly proportional to enzyme activity and the presence of enzyme inhibitor reduces the formation of the end product with the resultant decrease in absorbance.

[7] = biological target: T2, α-amylase enzyme (Sus scrofa, UniProt P00690); experiment: α-Amylase inhibition assay (CNPG3 hydrolysis, kinetic); type: biochemical, porcine pancreas
T2 construct: Alpha-amylase (porcine pancreas); purchased Sigma-Aldrich; host or cells: porcine pancreas
T2 sequence (P00690 16-511): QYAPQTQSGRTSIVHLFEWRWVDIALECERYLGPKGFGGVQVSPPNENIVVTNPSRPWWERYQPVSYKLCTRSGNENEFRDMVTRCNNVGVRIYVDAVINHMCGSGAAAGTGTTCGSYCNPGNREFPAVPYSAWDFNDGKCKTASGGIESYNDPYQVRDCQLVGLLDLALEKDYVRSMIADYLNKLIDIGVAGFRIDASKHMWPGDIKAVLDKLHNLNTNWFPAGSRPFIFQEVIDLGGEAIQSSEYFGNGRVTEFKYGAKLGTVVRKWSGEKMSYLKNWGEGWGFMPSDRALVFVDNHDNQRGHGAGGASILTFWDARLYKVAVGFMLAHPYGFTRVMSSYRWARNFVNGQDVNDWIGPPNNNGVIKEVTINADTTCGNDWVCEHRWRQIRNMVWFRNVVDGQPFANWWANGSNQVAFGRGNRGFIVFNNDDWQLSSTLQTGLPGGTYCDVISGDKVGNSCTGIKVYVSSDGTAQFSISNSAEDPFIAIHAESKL
Protocol: Alpha-amylase (porcine pancreas), 2-chloro-4-nitrophenyl-D-maltotrioside (CNPG3) and tetramethylsilane were from Sigma-Aldrich (St. Louis, MO, USA) while the remaining chemicals were from UFC Biotechnology. Spectrophotometric readings were performed using the microplate reader (Anthos Zenyth 200RT, Cambridge, UK). ^1H-NMR (400 MHz) analysis was carried out using Bruker NMR Spectrometer (Bruker, Yokohama, Japan). Spectra were recorded in CD3OD or DMSO-d6 with tetramethylsilane being employed as an internal standard, and chemical shift values were expressed in ppm.
The inhibitory effect of the polar fraction (ART-CQ) and isolated compounds from Artemisia Annua on the activity of α-amylase enzyme was assessed kinetically as previously described. […] The change in absorbance per min is proportional to the enzyme activity. Various concentrations of ART-CQ (10, 50, 100, 200 µg/mL) and isolated compounds (5, 20, 50, 100 µg/mL) were preincubated with the enzyme for 15 min at 37 °C before the addition of CNPG3.

[8] = biological target: aldose reductase enzyme (Homo sapiens, UniProt P15121); experiment: Aldose reductase inhibition assay (NADPH decrease at 340 nm, screening kit)
Protocol: Aldose reductase inhibitory activity was determined kinetically by measuring the decrease in the absorption of NADPH at 340 nm in a reaction mixture containing, in addition to NADPH, the enzyme, DL-glyceraldehyde and the samples [50]. This was accomplished using the Aldose Reductase Inhibitor Screening Kit (Biovision, Milpitas, CA, USA), in accordance with the manufacturer’s instructions. […] Then 60 μL of NADPH and 90 μL of enzyme solution were added and the plate was incubated in dark for 20 min at 37 °C. Subsequently, 40 μL of DL-glyceraldehyde was pipetted and the absorbance was determined at 340 nm at 37 °C for 90 min.

| IC50 [8] [nM] | IC50 ([7]; mean ± SEM of two replicates) [nM] | SMILES | IC50 [1] [µg/mL] | wound width as % of the original wound width at 24 h ([2]; 10 µg/mL, 24 h, control 56%) [%] | time to complete wound healing ([2]; 10 µg/mL) [h] | effect on scratch wound healing (in words) [2] | DPPH free radical scavenging, concentration for 50% scavenging (IC50) [3] [µg/mL] | IC50 [4] [nM] | FRAP value relative to that of ascorbic acid [5] | α-glucosidase inhibitory activity IC50 [6] [µg/mL] | α-amylase inhibitory effect (in words) [7] | wound width as % of the original wound width at 48 h ([2]; 10 µg/mL, 48 h, control 37%) [%] |
| --- | --- | --- | --- | --- | --- | --- | --- | --- | --- | --- | --- | --- |
| – | – | O=C(C=Cc1ccc(O)c(O)c1)OC1CC(O)(C(=O)O)CC(O)C1OC(=O)C=Cc1ccc(O)c(O)c1 (stereo not drawn) [Compound 2, 4,5-dicaffeoylquinic acid] | > 100 | 40 | 48 | improved the wound healing | 14.94 ± 0.60 | 4400 | – | – | – | – |
| – | – | O=C(C=Cc1ccc(O)c(O)c1)OC1CC(O)(C(=O)O)CC(OC(=O)C=Cc2ccc(O)c(O)c2)C1O (stereo not drawn) [Compound 1, 3,5-dicaffeoylquinic acid] | > 100 | – | – | inhibited cell migration and wound healing | 30.94 ± 4.61 | 436 | about 8 times that of the ascorbic acid | 157.13 ± 6.82 | no α-amylase inhibitory effect | – |
| 16800 | 2850 | COC(=O)C1(O)CC(O)C(OC(=O)C=Cc2ccc(O)c(O)c2)C(OC(=O)C=Cc2ccc(O)c(O)c2)C1 (stereo not drawn) [Compound 3, 3,4-dicaffeoylquinic acid methyl ester] | > 100 | – | 72 | improved the wound healing | 7.78 ± 0.24 | 1080 | more than 30 times that of the ascorbic acid | 250.42 ± 8.44 | – | 23 |
| – | – | O=C1O[C@H]([C@@H](O)CO)C(O)=C1O [ascorbic acid, reference compound] | – | – | – | – | 5.50 ± 0.30 | – | – | – | – | – |
